US7495025B2, “Spiro-1,2,4-trioxanes” (Council of Scientific and Industrial Research, priority 2005, dated 2009)
Where two headings read alike, the source gives them in different places.

Tested on: multi-drug resistant strain of Plasmodium yoelii Nigeriensis
Experiment: Antimalarial activity against multi-drug resistant P. yoelii in Swiss mice (4-day treatment, observation till day 28)
Type: in vivo
Details: for inhibition in vivo at 24 mg/kg/day / inhibition in vivo at 48 mg/kg/day / responders at 24 mg/kg/day / responders at 48 mg/kg/day / inhibition in vivo at 96 mg/kg/day / responders at 96 mg/kg/day: Plasmodium yoelii; for inhibition in vivo at 24 mg/kg/day / inhibition in vivo at 48 mg/kg/day / inhibition in vivo at 96 mg/kg/day: 96 h, read-out: % Suppression on Day 4; for responders at 24 mg/kg/day / responders at 48 mg/kg/day / responders at 96 mg/kg/day: 672 h
Procedure: The antimalarial activity of the test compounds was evaluated in rodent using multi-drug resistant strain of Plasmodium yoelii Nigeriensis in Swiss mice.
Random bred Swiss mice of either sex (20±2 gm) were inoculated intraperitoneally with 1×10^5 P. yoelii (MDR) parasites on day zero. The treatments with test compounds were administered to group of 5 mice each at different dose levels ranging between 24-96 mg/kg/day. The treatment was administered in groundnut oil intramuscularly and orally for 4 consecutive days (day 0-3). Blood smears from experimental mice were observed on day 4 and 7, day 10 and thereafter at regular intervals till day 28 or death of the animal. The parasitaemia level on day 4 was compared with vehicle control group and the percent suppression of parasitaemia in treated groups were calculated.
The dose at which no parasitaemia develop during the observation period has been reported as the curative dose.

[1] = po, read-out: Mice alive on day-28
[2] = Swiss mice, 96 mg/kg/day, i.m., in groundnut oil, days 0-3
[3] = Swiss mice, 96 mg/kg/day, oral, in groundnut oil, days 0-3
[4] = Swiss mice, 96 mg/kg/day, oral, in groundnut oil, days 0-3, read-out: Mice alive on day-28 (converted)
[5] = im, Swiss mice, 96 mg/kg/day, i.m., in groundnut oil, days 0-3
[6] = im, Swiss mice, 96 mg/kg/day, i.m., in groundnut oil, days 0-3, read-out: Mice alive on day-28 (converted)
[7] = Swiss mice, 48 mg/kg/day, oral, in groundnut oil, days 0-3
[8] = Swiss mice, 48 mg/kg/day, oral, in groundnut oil, days 0-3, read-out: Mice alive on day-28 (converted)
[9] = Swiss mice, 24 mg/kg/day, oral, in groundnut oil, days 0-3
[10] = Swiss mice, 24 mg/kg/day, oral, in groundnut oil, days 0-3, read-out: Mice alive on day-28 (converted)
[11] = im, Swiss mice, 48 mg/kg/day, i.m., in groundnut oil, days 0-3
[12] = im, Swiss mice, 48 mg/kg/day, i.m., in groundnut oil, days 0-3, read-out: Mice alive on day-28 (converted)

CCN(CC)CCCC(C)Nc1ccnc2cc(Cl)ccc12 (centres unmarked) [Chloroquine, reference compound]
inhibition in vivo at 24 mg/kg/day (po): 100% | inhibition in vivo at 48 mg/kg/day (po): 100% | responders at 24 mg/kg/day [1]: 0% | responders at 48 mg/kg/day [1]: 40%

C=C(c1ccccc1)C1COC2(CCC(=O)CC2)OO1 (centres unmarked) [Compound 3a, 3-(1-Phenyl-vinyl)-1,2,5-trioxaspiro[5.5]undec-9-one]
% Suppression on Day 4 [2]: 99% | Mice alive on day-28 [2]: 0/5

C=C(c1ccc(-c2ccccc2)cc1)C1COC2(CCC(=O)CC2)OO1 (centres unmarked) [Compound 3b, 3-(1-Biphenyl-4yl-vinyl)-1,2,5-trioxaspiro[5.5]undec-9-one]
% Suppression on Day 4 [2]: 100% | Mice alive on day-28 [2]: 1/5

C=C(c1ccc(Cl)cc1)C1COC2(CCC(=O)CC2)OO1 (centres unmarked) [Compound 3c, 3-[1-(4-Chloro-phenyl)-vinyl]-1,2,5-trioxa-spiro[5.5]undecan-9-one]
inhibition in vivo at 96 mg/kg/day [3]: 100% | responders at 96 mg/kg/day [4]: 0%

C=C(c1ccc(C2CCCCC2)cc1)C1COC2(CCC(=O)CC2)OO1 (centres unmarked) [Compound 3f, 3-[1-(4-Cyclohexyl-phenyl)-vinyl]-1,2,5-trioxa-spiro[5.5]undecan-9-one]
inhibition in vivo at 96 mg/kg/day [3]: 100% | responders at 96 mg/kg/day [4]: 60% | inhibition in vivo at 96 mg/kg/day [5]: 100% | responders at 96 mg/kg/day [6]: 40%

C=C(c1cccc2ccccc12)C1COC2(CCC(=O)CC2)OO1 (centres unmarked) [Compound 3g, 3-(1-Naphthalen-1-yl-vinyl)-1,2,5-trioxa-spiro [5.5]undecan-9-one]
inhibition in vivo at 96 mg/kg/day [3]: 100% | responders at 96 mg/kg/day [4]: 20%

C=C(c1ccccc1)C1COC2(CCC(=CC(=O)OCC)CC2)OO1 (centres unmarked) [Compound 4aa, [3-(1-Phenyl-vinyl)-1,2,5-trioxa-spiro[5.5]undec-9-ylidene]-acetic acid ethyl ester]
inhibition in vivo at 48 mg/kg/day [7]: 100% | responders at 48 mg/kg/day [8]: 100% | inhibition in vivo at 96 mg/kg/day [5]: 99% | responders at 96 mg/kg/day [6]: 40%

C=C(c1ccc(-c2ccccc2)cc1)C1COC2(CCC(=CC(=O)OCC)CC2)OO1 (centres unmarked) [Compound 4ab, [3-(1-Biphenyl-4-yl-vinyl)-1,2,5-trioxa-spiro[5.5]undec-9-ylidene]-acetic acid ethyl ester]
inhibition in vivo at 96 mg/kg/day [3]: 100% | responders at 96 mg/kg/day [4]: 100%

C=C(c1ccc(Cl)cc1)C1COC2(CCC(=CC(=O)OCC)CC2)OO1 (centres unmarked) [Compound 4ac, {3-[1-(4-Chloro-phenyl)-vinyl]-1,2,5-trioxa-spiro[5.5]undec-9-ylidene}-acetic acid ethyl ester]
inhibition in vivo at 24 mg/kg/day [9]: 100% | inhibition in vivo at 48 mg/kg/day [7]: 100% | responders at 24 mg/kg/day [10]: 60% | responders at 48 mg/kg/day [8]: 100% | inhibition in vivo at 48 mg/kg/day [11]: 100% | inhibition in vivo at 96 mg/kg/day [5]: 100% | responders at 48 mg/kg/day [12]: 60% | responders at 96 mg/kg/day [6]: 100%

C=C(c1ccc(OC)cc1)C1COC2(CCC(=CC(=O)OCC)CC2)OO1 (centres unmarked) [Compound 4ad, {3-[1-(4-Methoxy-phenyl)-vinyl]-1,2,5-trioxa-spiro[5.5]undec-9-ylidene}-acetic acid ethyl ester]
inhibition in vivo at 96 mg/kg/day [3]: 100% | responders at 96 mg/kg/day [4]: 100% | inhibition in vivo at 96 mg/kg/day [5]: 100% | responders at 96 mg/kg/day [6]: 40%

C=C(c1ccc(C)cc1)C1COC2(CCC(=CC(=O)OCC)CC2)OO1 (centres unmarked) [Compound 4ae, [3-(1-p-Tolyl-vinyl)-1,2,5-trioxa-spiro[5.5]undec-9-ylidene]-acetic acid ethyl ester]
inhibition in vivo at 24 mg/kg/day [9]: 100% | inhibition in vivo at 48 mg/kg/day [7]: 100% | responders at 24 mg/kg/day [10]: 60% | responders at 48 mg/kg/day [8]: 100% | inhibition in vivo at 48 mg/kg/day [11]: 100% | inhibition in vivo at 96 mg/kg/day [5]: 100% | responders at 48 mg/kg/day [12]: 40% | responders at 96 mg/kg/day [6]: 100%

C=C(c1ccc(C2CCCCC2)cc1)C1COC2(CCC(=CC(=O)OCC)CC2)OO1 (centres unmarked) [Compound 4af, {3-[1-(4-Cyclohexyl-phenyl)-vinyl]-1,2,5-trioxa-spiro[5.5]undec-9-ylidene}-acetic acid ethyl ester]
inhibition in vivo at 48 mg/kg/day [7]: 100% | inhibition in vivo at 96 mg/kg/day [3]: 100% | responders at 48 mg/kg/day [8]: 60% | responders at 96 mg/kg/day [4]: 80%

C=C(c1cccc2ccccc12)C1COC2(CCC(=CC(=O)OCC)CC2)OO1 (centres unmarked) [Compound 4ag, [3-(1-Naphthalen-1-yl-vinyl)-1,2,5-trioxa-spiro[5.5]undec-9-ylidene]-acetic acid ethyl ester]
inhibition in vivo at 96 mg/kg/day [5]: 100% | responders at 96 mg/kg/day [6]: 100%

C=C(c1ccc2ccccc2c1)C1COC2(CCC(=CC(=O)OCC)CC2)OO1 (centres unmarked) [Compound 4ah, [3-(1-Naphthalen-2-yl-vinyl)-1,2,5-trioxa-spiro[5.5]undec-9-ylidene]-acetic acid ethyl ester]
inhibition in vivo at 24 mg/kg/day [9]: 100% | inhibition in vivo at 48 mg/kg/day [7]: 100% | responders at 24 mg/kg/day [10]: 20% | responders at 48 mg/kg/day [8]: 100% | inhibition in vivo at 96 mg/kg/day [5]: 88% | responders at 96 mg/kg/day [6]: 40%

C=C(c1ccc(-c2ccccc2)cc1)C1COC2(CCC(=C(C)C(=O)OCC)CC2)OO1 (centres unmarked) [Compound 4bb, 2-[3-(1-Biphenyl-4-yl-vinyl)-1,2,5-trioxa-spiro [5.5]undec-9-ylidene]-propionic acid ethyl ester]
inhibition in vivo at 96 mg/kg/day [3]: 100% | responders at 96 mg/kg/day [4]: 60%

C=C(c1ccc(C2CCCCC2)cc1)C1COC2(CCC(=C(C)C(=O)OCC)CC2)OO1 (centres unmarked) [Compound 4bf, 2-{3-[1-(4-Cyclohexyl-phenyl)-vinyl]-1,2,5-trioxa-spiro[5.5]undec-9-ylidene}-propionic acid ethyl ester]
inhibition in vivo at 96 mg/kg/day [3]: 100% | responders at 96 mg/kg/day [4]: 40%

CCO[C@H]1O[C@@H]2O[C@@]3(C)CC[C@H]4[C@H](C)CC[C@@H]([C@H]1C)[C@@]24OO3 [β-Arteether, reference compound]
% Suppression on Day 4 [9]: 100% | Mice alive on day-28 [9]: 1/5 | % Suppression on Day 4 [7]: 100% | Mice alive on day-28 [7]: 5/5
